According to patent US20240209028A1, “CNP COMPOUNDS” (priority 2022, published 2024):
Starred links: 1 amine or outer side, 2 acyl side, 3 side chain; linkers in the order of their positions; H or OH if unused. Positions of bridges follow the written chain, without caps; N, C: chain ends. Residues, ends and D or L forms follow the SMILES beside them. *: point of attachment. C18 diacid = O=C(O)CCCCCCCCCCCCCCCCC(=O)*; γGlu = O=C(O)[C@H](CCC(=O)[*:2])N[*:1]; AEEA = NCCOCCOCC(=O)O

Biological target: T1, human natriuretic peptide receptor 2 (hNPR2) (Homo sapiens, UniProt P20594)
T1 construct: expressed in transfected cells; host or cells: HEK293 (ATCC CRL-1573), clone 35, co-transfected with pGloSensor-42F
T1 sequence (P20594 23-1047): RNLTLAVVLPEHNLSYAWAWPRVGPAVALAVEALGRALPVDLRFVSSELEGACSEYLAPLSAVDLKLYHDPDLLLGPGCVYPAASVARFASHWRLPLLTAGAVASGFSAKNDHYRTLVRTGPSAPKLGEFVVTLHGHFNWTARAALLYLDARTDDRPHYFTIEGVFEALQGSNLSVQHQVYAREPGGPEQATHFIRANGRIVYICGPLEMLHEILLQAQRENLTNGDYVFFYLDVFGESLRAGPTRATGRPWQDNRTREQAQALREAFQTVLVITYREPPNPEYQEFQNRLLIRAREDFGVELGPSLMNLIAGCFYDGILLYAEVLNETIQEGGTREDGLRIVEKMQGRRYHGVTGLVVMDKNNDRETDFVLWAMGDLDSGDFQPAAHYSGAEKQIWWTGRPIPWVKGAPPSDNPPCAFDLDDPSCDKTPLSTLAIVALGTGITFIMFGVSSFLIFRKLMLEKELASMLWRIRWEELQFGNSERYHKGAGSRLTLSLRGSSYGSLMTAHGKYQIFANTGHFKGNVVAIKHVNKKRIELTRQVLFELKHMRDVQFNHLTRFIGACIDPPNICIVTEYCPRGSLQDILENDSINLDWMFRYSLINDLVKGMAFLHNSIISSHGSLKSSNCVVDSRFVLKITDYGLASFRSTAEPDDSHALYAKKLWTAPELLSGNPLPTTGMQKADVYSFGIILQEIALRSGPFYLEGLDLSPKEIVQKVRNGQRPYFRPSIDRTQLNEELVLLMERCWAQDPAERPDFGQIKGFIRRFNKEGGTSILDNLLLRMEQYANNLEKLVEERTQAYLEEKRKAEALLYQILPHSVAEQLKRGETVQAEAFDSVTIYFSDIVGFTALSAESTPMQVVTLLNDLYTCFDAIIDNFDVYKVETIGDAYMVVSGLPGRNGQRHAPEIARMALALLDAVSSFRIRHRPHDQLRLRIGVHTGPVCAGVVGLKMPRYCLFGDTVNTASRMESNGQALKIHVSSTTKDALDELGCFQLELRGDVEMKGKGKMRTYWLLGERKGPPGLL
Test: In vitro hNPR2 activity assay (cGMP GloSensor reporter, HEK293)
Assay type: cell-based
Conditions: for hNPR2 0% HSA. [EC50% rel CNP]: potency relative to CNP22 (0065); for EC50: 0% HSA, HEK293-hNPR2/GloSensor cells
Procedure, shortened: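 Potency is the EC50 from a four-parameter logistic fit, also expressed relative to the in-plate CNP22 control (×100), with at least two replicates. Compounds (ten concentrations, […], HSA-free diluent with 1% OVA, 0.01% Tween20) were incubated 30 min at 37 °C on HEK293 cells co-expressing hNPR2 and a GloSensor cGMP luciferase. Luminescence detected with Bright-Glo.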

CC[C@H](C)[C@@H]1NC(=O)[C@H](CCCNC(=N)N)NC(=O)[C@H](CC(=O)O)NC(=O)[C@H](CC(C)C)NC(=O)[C@@H]2CCCN2C(=O)[C@H](CC(C)C)NC(=O)CNC(=O)[C@H](Cc2ccccc2)NC(=O)[C@@H](NC(=O)CNC(=O)[C@H](CCC(N)=O)NC(=O)[C@H](CO)NC(=O)[C@H](CC(C)C)NC(=O)CNC(=O)[C@H](CCCCN)NC(=O)[C@H](CCCCN)NC(=O)[C@H](CCC(N)=O)NC(=O)[C@H](C)NC(=O)CNC(=O)[C@@H]2CCCN2C(=O)[C@H](C)NC(=O)[C@H](CCC(N)=O)NC(=O)CNC(=O)[C@@H]2CCCN2C(=O)[C@H](C)NC(=O)[C@H](CCC(N)=O)NC(=O)CNC(=O)[C@@H]2CCCN2C(=O)[C@H](C)NC(=O)[C@H](CCC(N)=O)NC(=O)CNC(=O)COCCOCCNC(=O)COCCOCCNC(=O)CC[C@H](NC(=O)CCCCCCCCCCCCCCCCC(=O)O)C(=O)O)CSSC[C@@H](C(=O)O)NC(=O)CNC(=O)[C@H](CC(C)C)NC(=O)CNC(=O)[C@H](CO)NC(=O)[C@H](CC(C)C)NC(=O)[C@H](CO)NC(=O)CNC1=O [compound 1487] ({C18 diacid-γGlu-AEEA-AEEA}-GQAPGQAPGQAPGAQKKGLSQGCFGLPLDRIGSLSGLGC-OH; disulfide 23-39)
hNPR2 0% HSA. [EC50% rel CNP]: 22.0%

CC[C@H](C)[C@@H]1NC(=O)[C@H](CCCNC(=N)N)NC(=O)[C@H](CC(=O)O)NC(=O)[C@H](CC(C)C)NC(=O)[C@H](CCCCN)NC(=O)[C@H](CC(C)C)NC(=O)CNC(=O)[C@H](Cc2ccccc2)NC(=O)[C@@H](NC(=O)CNC(=O)[C@H](CO)NC(=O)[C@H](CO)NC(=O)[C@H](CC(C)C)NC(=O)CNC(=O)[C@H](CCCCN)NC(=O)[C@H](CCCCN)NC(=O)[C@H](CCC(N)=O)NC(=O)[C@H](C)NC(=O)CNC(=O)[C@H](CCC(=O)O)NC(=O)[C@H](Cc2ccc(O)cc2)NC(=O)COCCOCCNC(=O)COCCOCCNC(=O)CC[C@H](NC(=O)CCCCCCCCCCCCCCCCC(=O)O)C(=O)O)CSSC[C@@H](C(=O)O)NC(=O)CNC(=O)[C@H](CC(C)C)NC(=O)CNC(=O)[C@H](CO)NC(=O)[C@H](CC(C)C)NC(=O)[C@H](CO)NC(=O)CNC1=O [compound 1224] ({C18 diacid-γGlu-AEEA-AEEA}-YEGAQKKGLSSGCFGLKLDRIGSLSGLGC-OH; disulfide 13-29)
EC50: 0.86 nM
hNPR2 0% HSA. [EC50% rel CNP]: 16.9%

CC[C@H](C)[C@@H]1NC(=O)[C@H](CCCNC(=N)N)NC(=O)[C@H](CC(=O)O)NC(=O)[C@H](CC(C)C)NC(=O)[C@@H]2CCCN2C(=O)[C@H](CC(C)C)NC(=O)CNC(=O)[C@H](Cc2ccccc2)NC(=O)[C@@H](NC(=O)CNC(=O)[C@H](CO)NC(=O)[C@H](CO)NC(=O)[C@H](CC(C)C)NC(=O)CNC(=O)[C@H](CCCCN)NC(=O)[C@H](CCCCN)NC(=O)[C@H](CCC(N)=O)NC(=O)[C@H](C)NC(=O)CNC(=O)[C@H](CCC(=O)O)NC(=O)[C@H](Cc2ccc(O)cc2)NC(=O)COCCOCCNC(=O)COCCOCCNC(=O)CC[C@H](NC(=O)CC[C@H](NC(=O)CCCCCCCCCCCCCCCCC(=O)O)C(=O)O)C(=O)O)CSSC[C@@H](C(=O)O)NC(=O)CNC(=O)[C@H](CC(C)C)NC(=O)CNC(=O)[C@H](CO)NC(=O)[C@H](CC(C)C)NC(=O)[C@H](CO)NC(=O)CNC1=O [compound 1290] ({C18 diacid-γGlu-γGlu-AEEA-AEEA}-YEGAQKKGLSSGCFGLPLDRIGSLSGLGC-OH; disulfide 13-29)
hNPR2 0% HSA. [EC50% rel CNP]: 7.0%

CC[C@H](C)[C@@H]1NC(=O)[C@H](CCCNC(=N)N)NC(=O)[C@H](CC(=O)O)NC(=O)[C@H](CC(C)C)NC(=O)[C@H](CCCCN)NC(=O)[C@H](CC(C)C)NC(=O)CNC(=O)[C@H](Cc2ccccc2)NC(=O)[C@@H](NC(=O)CNC(=O)[C@H](CCCCN)NC(=O)[C@H](CO)NC(=O)[C@H](CC(C)C)NC(=O)CNC(=O)[C@H](CCCCN)NC(=O)[C@H](CCCCN)NC(=O)[C@H](CCC(N)=O)NC(=O)[C@H](C)NC(=O)CNC(=O)[C@H](CCC(=O)O)NC(=O)[C@H](Cc2ccc(O)cc2)NC(=O)COCCOCCNC(=O)COCCOCCNC(=O)CC[C@H](NC(=O)CCCCCCCCCCCCCCCCC(=O)O)C(=O)O)CSSC[C@@H](C(=O)O)NC(=O)CNC(=O)[C@H](CC(C)C)NC(=O)CNC(=O)[C@H](CO)NC(=O)[C@H](CC(C)C)NC(=O)[C@H](CO)NC(=O)CNC1=O [compound 1221]
EC50: 1.17 nM
hNPR2 0% HSA. [EC50% rel CNP]: 35.9%

CC[C@H](C)[C@@H]1NC(=O)[C@H](CCCNC(=N)N)NC(=O)[C@H](CC(=O)O)NC(=O)[C@H](CC(C)C)NC(=O)[C@H](CCCCN)NC(=O)[C@H](CC(C)C)NC(=O)CNC(=O)[C@H](Cc2ccccc2)NC(=O)[C@@H](NC(=O)CNC(=O)[C@H](CCCCN)NC(=O)[C@H](CO)NC(=O)[C@H](CC(C)C)NC(=O)CNC(=O)[C@H](CCCCN)NC(=O)[C@H](CCC(=O)O)NC(=O)[C@H](CCC(N)=O)NC(=O)[C@H](C)NC(=O)CNC(=O)[C@H](CCC(N)=O)NC(=O)[C@H](CCC(=O)O)NC(=O)COCCOCCNC(=O)COCCOCCNC(=O)CC[C@H](NC(=O)CCCCCCCCCCCCCCCCC(=O)O)C(=O)O)CSSC[C@@H](C(=O)O)NC(=O)CNC(=O)[C@H](CC(C)C)NC(=O)CNC(=O)[C@H](CO)NC(=O)[C@H](CC(C)C)NC(=O)[C@H](CO)NC(=O)CNC1=O [compound 1231] ({C18 diacid-γGlu-AEEA-AEEA}-EQGAQEKGLSKGCFGLKLDRIGSLSGLGC-OH; disulfide 13-29)
EC50: 5.62 nM
hNPR2 0% HSA. [EC50% rel CNP]: 4.1%

CC[C@H](C)[C@@H]1NC(=O)[C@H](CCCNC(=N)N)NC(=O)[C@H](CCC(=O)O)NC(=O)[C@H](CC(C)C)NC(=O)[C@@H]2CCCN2C(=O)[C@H](CC(C)C)NC(=O)CNC(=O)[C@H](Cc2ccccc2)NC(=O)[C@@H](NC(=O)CNC(=O)[C@H](CCC(N)=O)NC(=O)[C@H](CO)NC(=O)[C@H](CC(C)C)NC(=O)CNC(=O)[C@H](CCCCN)NC(=O)[C@H](CCCCN)NC(=O)[C@H](CCC(N)=O)NC(=O)[C@H](C)NC(=O)CNC(=O)[C@H](CCCCN)NC(=O)[C@H](Cc2ccc(O)cc2)NC(=O)COCCOCCNC(=O)COCCOCCNC(=O)COCCOCCNC(=O)COCCOCCNC(=O)CC[C@H](NC(=O)CC[C@H](NC(=O)CCCCCCCCCCCCCCCCC(=O)O)C(=O)O)C(=O)O)CSSC[C@@H](C(=O)O)NC(=O)CNC(=O)[C@H](CC(C)C)NC(=O)CNC(=O)[C@H](CO)NC(=O)[C@H](CC(C)C)NC(=O)[C@H](CO)NC(=O)CNC1=O [compound 1493] ({C18 diacid-γGlu-γGlu-AEEA-AEEA-AEEA-AEEA}-YKGAQKKGLSQGCFGLPLERIGSLSGLGC-OH; disulfide 13-29; C-terminus assumed)
EC50: 0.8 nM
hNPR2 0% HSA. [EC50% rel CNP]: 11.5%

CC[C@H](C)[C@@H]1NC(=O)[C@H](CCCNC(=N)N)NC(=O)[C@H](CC(=O)O)NC(=O)[C@H](CC(C)C)NC(=O)[C@@H]2CCCN2C(=O)[C@H](CC(C)C)NC(=O)CNC(=O)[C@H](Cc2ccccc2)NC(=O)[C@@H](NC(=O)CNC(=O)[C@H](CO)NC(=O)[C@H](CO)NC(=O)[C@H](CC(C)C)NC(=O)CNC(=O)[C@@H](NC(=O)[C@H](Cc2c[nH]cn2)NC(=O)[C@H](CCC(N)=O)NC(=O)[C@H](C)NC(=O)CNC(=O)[C@H](CCCCN)NC(=O)[C@H](Cc2ccc(O)cc2)NC(=O)COCCOCCNC(=O)COCCOCCNC(=O)CC[C@H](NC(=O)CCCCCCCCCCCCCCCCC(=O)O)C(=O)O)[C@@H](C)O)CSSC[C@@H](C(=O)O)NC(=O)CNC(=O)[C@H](CC(C)C)NC(=O)CNC(=O)[C@H](CO)NC(=O)[C@H](CC(C)C)NC(=O)[C@H](CO)NC(=O)CNC1=O [compound 1305] ({C18 diacid-γGlu-AEEA-AEEA}-YKGAQHTGLSSGCFGLPLDRIGSLSGLGC-OH; disulfide 13-29)
hNPR2 0% HSA. [EC50% rel CNP]: 8.7%

CC[C@H](C)[C@@H]1NC(=O)[C@H](CCCNC(=N)N)NC(=O)[C@H](CC(=O)O)NC(=O)[C@H](CC(C)C)NC(=O)[C@@H]2CCCN2C(=O)[C@H](CC(C)C)NC(=O)CNC(=O)[C@H](Cc2ccccc2)NC(=O)[C@@H](NC(=O)CNC(=O)[C@H](CCCCN)NC(=O)[C@H](CO)NC(=O)[C@H](CC(C)C)NC(=O)CNC(=O)[C@H](CCCCN)NC(=O)[C@H](CCC(=O)O)NC(=O)[C@H](CCC(N)=O)NC(=O)[C@H](C)NC(=O)CNC(=O)[C@H](Cc2c[nH]cn2)NC(=O)[C@H](Cc2ccc(O)cc2)NC(=O)COCCOCCNC(=O)COCCOCCNC(=O)CC[C@H](NC(=O)CCCCCCCCCCCCCCCCC(=O)O)C(=O)O)CSSC[C@@H](C(=O)O)NC(=O)CNC(=O)[C@H](CC(C)C)NC(=O)CNC(=O)[C@H](CO)NC(=O)[C@H](CC(C)C)NC(=O)[C@H](CO)NC(=O)CNC1=O [compound 1240] ({C18 diacid-γGlu-AEEA-AEEA}-YHGAQEKGLSKGCFGLPLDRIGSLSGLGC-OH; disulfide 13-29; C-terminus assumed)
hNPR2 0% HSA. [EC50% rel CNP]: 11.2%
